# Experimental data: patent US20260070945A1, “MACROCYCLIC IMMUNOMODULATORS” (Bristol-Myers Squibb Company, priority 2022, published 2026)
# Where a SMILES comes first, the peptide text is derived from it. Bridges are numbered along the chain shown (N, C = ends). [ ]: non-standard residue; d: D form. The star is where a group is joined. ξ: configuration not given here. Phe(4-COOH) = N[C@@H](Cc1ccc(C(=O)O)cc1)C(=O)O; Bip = N[C@@H](Cc1ccc(-c2ccccc2)cc1)C(=O)O; Phe(3-Me) = Cc1cccc(C[C@H](N)C(=O)O)c1; hArg = N=C(N)NCCCC[C@H](N)C(=O)O; 4Pal = N[C@@H](Cc1ccncc1)C(=O)O; Cha = N[C@@H](CC1CCCCC1)C(=O)O; Cit = NC(=O)NCCC[C@H](N)C(=O)O; Ile(3ξ) = CCC(C)[C@H](N)C(=O)O; Thr(3ξ) = CC(O)[C@H](N)C(=O)O; Chg = N[C@H](C(=O)O)C1CCCCC1; NMeS = CN[C@@H](CO)C(=O)O; hSer = N[C@@H](CCO)C(=O)O; Carboxymethyl = O=C(O)C*; NMeA = CN[C@@H](C)C(=O)O; Orn = NCCC[C@H](N)C(=O)O; Aun = NCCCCCCCCCCC(=O)O; Dab = NCC[C@H](N)C(=O)O; Dap = NC[C@H](N)C(=O)O; AEEA = NCCOCCOCC(=O)O
# Target: T1, PD-1/PD-L1 interaction (PE-labeled human PD-L1-Ig binding to Jurkat cell line over-expressing human PD-1) (Homo sapiens, UniProt Q15116)
# T1 construct: expressed in transfected cells; host or cells: Jurkat
# Assay: Jurkat-PD-1 Cell Binding High-Content Screening Assay (CBA)
# Settings: Jurkat-hPD-1 cells, PE-labeled PD-L1-Ig 20 nM final; read-out: Jurkat HPD1 PDL1 IC50
# In short: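 High-content imaging read-out of PE-PD-L1-Ig binding (20 nM final, 1 h) to Jurkat-hPD-1 cells, after 2 h compound exposure at 37 °C in DMEM with 10% FCS. Nuclei counterstained with Hoechst 33342 after paraformaldehyde fixation.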
# T1 sequence (Q15116 25-288): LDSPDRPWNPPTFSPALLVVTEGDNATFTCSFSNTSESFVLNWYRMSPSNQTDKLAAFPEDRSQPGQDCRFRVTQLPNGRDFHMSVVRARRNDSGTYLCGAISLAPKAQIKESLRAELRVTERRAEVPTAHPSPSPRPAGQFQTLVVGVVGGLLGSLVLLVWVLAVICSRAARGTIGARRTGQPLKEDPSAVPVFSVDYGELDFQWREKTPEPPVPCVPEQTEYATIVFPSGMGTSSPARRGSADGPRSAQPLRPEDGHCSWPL
row,Compound,IC50
1,CC(=O)NCCCC[C@@H]1NC(=O)[C@H](Cc2ccc(-c3ccccc3)cc2)NC(=O)[C@H](Cc2ccc(O)cc2)NC(=O)[C@H](Cc2cccc(C)c2)NC(=O)[C@H](CC(=O)O)NC(=O)[C@H](Cc2ccc(OCC(=O)O)cc2)NC(=O)[C@H](C(C)O)NC(=O)CSC[C@@H](C(=O)N[C@@H](CCN)C(=O)NCCCCCCCCCCC(=O)O)NC(=O)[C@H](C(C)O)NC(=O)[C@H](C(C)C)NC(=O)[C@H](CC2CCCCC2)NC(=O)[C@H](CCN)NC(=O)[C@@H](CC(C)C)NC(=O)[C@H](C)N(C)C1=O (stereo partly drawn) [Example 2451] ({CH2CO}-[Thr(3ξ)]Y(Carboxymethyl)D[Phe(3-Me)]Y[Bip]K(Ac)[NMeA][dL][Dab][Cha]V[Thr(3ξ)]C[Dab][Aun]-OH; thioether N-14),13.9 nM
2,Cc1cccc(C[C@@H]2NC(=O)[C@H](CC(=O)O)NC(=O)[C@H](Cc3ccc(C(=O)O)cc3)NC(=O)[C@H](Cc3ccc(OCC(=O)O)cc3)NC(=O)CSC[C@@H](C(=O)NCCCCCCCCCCC(=O)O)NC(=O)[C@H](C(C)O)NC(=O)[C@H](C(C)C)NC(=O)[C@H](CC3CCCCC3)NC(=O)[C@H](CCN)NC(=O)[C@@H](CC(C)C)NC(=O)[C@H](C)N(C)C(=O)[C@H](Cc3ccc(O)cc3)NC(=O)[C@H](Cc3ccc(-c4ccccc4)cc3)NC(=O)[C@H](Cc3ccc(O)cc3)NC2=O)c1 (stereo partly drawn) [Example 2331] ({CH2CO}-Y(Carboxymethyl)[Phe(4-COOH)]D[Phe(3-Me)]Y[Bip]Y[NMeA][dL][Dab][Cha]V[Thr(3ξ)]C[Aun]-OH; thioether N-14),160 nM
3,Cc1cccc(C[C@@H]2NC(=O)[C@H](CC(=O)O)NC(=O)[C@H](Cc3ccc(OCC(=O)O)cc3)NC(=O)[C@H](CC(N)=O)NC(=O)CSC[C@@H](C(=O)N[C@@H](CCN)C(=O)NCCCCCCCCCCC(=O)O)NC(=O)[C@H]([C@@H](C)O)NC(=O)[C@H](C(C)C)NC(=O)[C@H](CC3CCCCC3)NC(=O)[C@H](CCN)NC(=O)[C@@H](CC(C)C)NC(=O)[C@H](C)N(C)C(=O)[C@H](Cc3ccc(O)cc3)NC(=O)[C@H](Cc3ccc(-c4ccccc4)cc3)NC(=O)[C@H](C(C)C)NC2=O)c1 [Example 1322] ({CH2CO}-NY(Carboxymethyl)D[Phe(3-Me)]V[Bip]Y[NMeA][dL][Dab][Cha]VTC[Dab][Aun]-OH; thioether N-14),19.7 nM
4,Cc1cccc(C[C@@H]2NC(=O)[C@H](CC(=O)O)NC(=O)[C@H](Cc3ccc(C(=O)O)cc3)NC(=O)[C@H](Cc3ccncc3)NC(=O)CSC[C@@H](C(=O)N[C@@H](CCN)C(=O)NCCOCCOCC(=O)NCCCCCCCCCCC(=O)O)NC(=O)[C@H](CCCN)NC(=O)[C@H](C(C)C)NC(=O)[C@H](CC3CCCCC3)NC(=O)[C@H](CCN)NC(=O)[C@@H](CC(C)C)NC(=O)[C@H](C)N(C)C(=O)[C@H](CCCNC(N)=O)NC(=O)[C@H](Cc3ccc(-c4ccccc4)cc3)NC(=O)[C@H](Cc3ccc(C(=O)O)cc3)NC2=O)c1 [Example 1404] ({CH2CO}-[4Pal][Phe(4-COOH)]D[Phe(3-Me)][Phe(4-COOH)][Bip][Cit][NMeA][dL][Dab][Cha]V[Orn]C[Dab][AEEA][Aun]-OH; thioether N-14),26.1 nM
5,Cc1cccc(C[C@@H]2NC(=O)[C@H](CC(=O)O)NC(=O)[C@H](Cc3ccc(OCC(=O)O)cc3)NC(=O)[C@H](CCCNC(=N)N)NC(=O)CSC[C@@H](C(=O)N[C@H](CC(N)=O)C(=O)NCCCCCCCCCCC(=O)O)NC(=O)[C@H](CCO)NC(=O)[C@H](C(C)C)NC(=O)[C@H](CC3CCCCC3)NC(=O)[C@H](CCN)NC(=O)[C@@H](CC(C)C)NC(=O)[C@H](C)N(C)C(=O)[C@H](Cc3ccc(OCC(=O)O)cc3)NC(=O)[C@H](Cc3ccc(-c4ccccc4)cc3)NC(=O)[C@H](Cc3ccc(OCC(=O)O)cc3)NC2=O)c1 [Example 2362] ({CH2CO}-RY(Carboxymethyl)D[Phe(3-Me)]Y(Carboxymethyl)[Bip]Y(Carboxymethyl)[NMeA][dL][Dab][Cha]V[hSer]C[dN][Aun]-OH; thioether N-14),40.2 nM

# Other lines, results leading:
row,IC50,Compound
1,20.5 nM,CC(C)C[C@@H]1NC(=O)[C@H](Cc2c[nH]c3ccccc23)NC(=O)[C@H](CC(=O)O)NC(=O)[C@H](Cc2ccc(C(=O)O)cc2)NC(=O)[C@H](Cc2ccc(OCC(=O)O)cc2)NC(=O)CSC[C@@H](C(=O)NCC(=O)N[C@@H](CC(=O)O)C(=O)NCC(=O)NCCCCCCCCCCC(=O)O)NC(=O)[C@H](CO)NC(=O)[C@H](C(C)C)NC(=O)[C@H](CC2CCCCC2)NC(=O)[C@H](CCN)NC(=O)[C@@H](CC(C)C)NC(=O)[C@H](C)N(C)C(=O)[C@H](C(C)C)NC(=O)[C@H](Cc2ccc(-c3ccccc3)cc2)NC1=O [Example 1033] ({CH2CO}-Y(Carboxymethyl)[Phe(4-COOH)]DWL[Bip]V[NMeA][dL][Dab][Cha]VSCGDG[Aun]-OH; thioether N-14)
2,21 nM,CC(C)C[C@H]1NC(=O)[C@H](C)N(C)C(=O)[C@H](C(C)C)NC(=O)[C@H](Cc2ccc(-c3ccccc3)cc2)NC(=O)[C@H](C2CCCCC2)NC(=O)[C@H](Cc2c[nH]c3ccccc23)NC(=O)[C@H](CC(=O)O)NC(=O)[C@H](CCCCNC(=N)N)NC(=O)[C@H](Cc2ccc(OCC(=O)O)cc2)NC(=O)CSC[C@@H](C(=O)N[C@@H](CCCCN)C(=O)NCCOCCOCC(=O)NCCCCCCCCCCC(=O)O)NC(=O)[C@H](CO)NC(=O)[C@H](C(C)C)NC(=O)[C@H](CC2CCCCC2)NC(=O)[C@H](CC(=O)O)NC1=O [Example 2093] ({CH2CO}-Y(Carboxymethyl)[hArg]DW[Chg][Bip]V[NMeA][dL]D[Cha]VSCK[AEEA][Aun]-OH; thioether N-14)
3,5.7 nM,CC(=O)NCCCC[C@@H]1NC(=O)[C@H](Cc2ccc(-c3ccccc3)cc2)NC(=O)[C@H](C(C)C)NC(=O)[C@H](Cc2c[nH]c3ccccc23)NC(=O)[C@H](CC(=O)O)NC(=O)[C@H](Cc2ccc(OCC(=O)O)cc2)NC(=O)[C@H](Cc2ccc(OCC(=O)O)cc2)NC(=O)CSC[C@@H](C(=O)NCCOCCOCC(=O)NCCCCCCCCCCC(=O)O)NC(=O)[C@H](CCCCN)NC(=O)[C@H](C(C)C)NC(=O)[C@H](CC2CCCCC2)NC(=O)[C@H](CCN)NC(=O)[C@@H](CC(C)C)NC(=O)[C@H](C)N(C)C1=O [Example 2224] ({CH2CO}-Y(Carboxymethyl)Y(Carboxymethyl)DWV[Bip]K(Ac)[NMeA][dL][Dab][Cha]VKC[AEEA][Aun]-OH; thioether N-14)
4,36.5 nM,Cc1cccc(C[C@@H]2NC(=O)[C@H](CC(=O)O)NC(=O)[C@H](Cc3ccc(OCC(=O)O)cc3)NC(=O)[C@H](CN)NC(=O)CSC[C@@H](C(=O)NCCOCCOCC(=O)NCCCCCCCCCCC(=O)O)NC(=O)[C@H](CCCN)NC(=O)[C@H](C(C)C)NC(=O)[C@H](CC3CCCCC3)NC(=O)[C@H](CCN)NC(=O)[C@@H](CC(C)C)NC(=O)[C@H](C)N(C)C(=O)[C@H](Cc3ccc(O)cc3)NC(=O)[C@H](Cc3ccc(-c4ccccc4)cc3)NC(=O)[C@H](C(C)C)NC2=O)c1 [Example 1317] ({CH2CO}-[Dap]Y(Carboxymethyl)D[Phe(3-Me)]V[Bip]Y[NMeA][dL][Dab][Cha]V[Orn]C[AEEA][Aun]-OH; thioether N-14)
5,9.9 nM,CCC(C)[C@@H]1NC(=O)[C@H](Cc2ccc(-c3ccccc3)cc2)NC(=O)[C@H](CC(C)C)NC(=O)[C@H](Cc2c[nH]c3ccccc23)NC(=O)[C@H](CC(=O)O)NC(=O)[C@H](Cc2ccc(C(=O)O)cc2)NC(=O)[C@H](Cc2ccc(OCC(=O)O)cc2)NC(=O)CSC[C@@H](C(=O)NCCOCCOCC(=O)N[C@@H](CN)C(=O)NCCCCCCCCCCC(=O)O)NC(=O)[C@H](CO)NC(=O)[C@H](C(C)C)NC(=O)[C@H](CC2CCCCC2)NC(=O)[C@H](CCN)NC(=O)[C@@H](CC(C)C)NC(=O)[C@H](C)N(C)C1=O (stereo partly drawn) [Example 2074] ({CH2CO}-Y(Carboxymethyl)[Phe(4-COOH)]DWL[Bip][Ile(3ξ)][NMeA][dL][Dab][Cha]VSC[AEEA][Dap][Aun]-OH; thioether N-14)
6,29.9 nM,CC(C)C[C@H]1NC(=O)[C@H](C)N(C)C(=O)[C@H](C(C)C)NC(=O)[C@H](Cc2ccc(-c3ccccc3)cc2)NC(=O)[C@H](C(C)C)NC(=O)[C@H](Cc2c[nH]c3ccccc23)NC(=O)[C@H](CC(=O)O)NC(=O)[C@H](CCCCNC(=N)N)NC(=O)[C@H](Cc2ccc(OCC(=O)O)cc2)NC(=O)CSC[C@@H](C(=O)N[C@@H](CCCN)C(=O)NCCOCCOCC(=O)NCCCCCCCCCCC(=O)O)NC(=O)[C@H](C(C)O)NC(=O)[C@H](C(C)C)NC(=O)[C@H](CC2CCCCC2)NC(=O)[C@H](CCN)NC1=O (stereo partly drawn) [Example 2111] ({CH2CO}-Y(Carboxymethyl)[hArg]DWV[Bip]V[NMeA][dL][Dab][Cha]V[Thr(3ξ)]C[Orn][AEEA][Aun]-OH; thioether N-14)
7,21.1 nM,CCC(C)[C@@H]1NC(=O)[C@H](Cc2ccc(-c3ccccc3)cc2)NC(=O)[C@H](CC(C)C)NC(=O)[C@H](Cc2c[nH]c3ccccc23)NC(=O)[C@H](CC(=O)O)NC(=O)[C@H](Cc2ccc(C(=O)O)cc2)NC(=O)[C@H](Cc2ccc(OCC(=O)O)cc2)NC(=O)CSC[C@@H](C(=O)NCCOCCOCC(=O)NCCCCCCCCCCC(=O)O)NC(=O)[C@H](CCCNC(=N)N)NC(=O)[C@H](C(C)C)NC(=O)[C@H](CC2CCCCC2)NC(=O)[C@H](CCN)NC(=O)[C@@H](CC(C)C)NC(=O)[C@H](CO)N(C)C1=O (stereo partly drawn) [Example 2279] ({CH2CO}-Y(Carboxymethyl)[Phe(4-COOH)]DWL[Bip][Ile(3ξ)][NMeS][dL][Dab][Cha]VRC[AEEA][Aun]-OH; thioether N-14)

# Same assay, conditions: PE-labeled PD-L1-Ig 20 nM final, Jurkat-hPD-1 cells; read-out: Jurkat HPD1 PDL1 IC50
row,Compound,IC50
1,CC(=O)NCCCC[C@@H]1NC(=O)[C@H](C(C)C)NC(=O)[C@H](CC2CCCCC2)NC(=O)[C@H](CCN)NC(=O)[C@@H](CC(C)C)NC(=O)[C@H](C)N(C)C(=O)[C@H](CCC(N)=O)NC(=O)[C@H](Cc2ccc(-c3ccccc3)cc2)NC(=O)[C@H](Cc2ccc(OCC(=O)O)cc2)NC(=O)[C@H](Cc2cccc(C)c2)NC(=O)[C@H](CC(=O)O)NC(=O)[C@H](Cc2ccc(OCC(=O)O)cc2)NC(=O)[C@H](Cc2ccncc2)NC(=O)CSC[C@@H](C(=O)N[C@@H](CCN)C(=O)NCCOCCOCC(=O)NCCCCCCCCCCC(=O)O)NC1=O [Example 2493] ({CH2CO}-[4Pal]Y(Carboxymethyl)D[Phe(3-Me)]Y(Carboxymethyl)[Bip]Q[NMeA][dL][Dab][Cha]VK(Ac)C[Dab][AEEA][Aun]-OH; thioether N-14),4.8 nM
